Data reported in US20190142737A1, “SUBLINGUAL SPRAY FORMULATION COMPRISING DIHYDROARTEMESININ” (LondonPharma Ltd., priority 2009, published 2019).
Where two headings read alike, the source gives them in different places.

Experiments:
[1] = Impurities of artemether in solvent systems after eight weeks storage (HPLC); type: physicochemical; conditions: in contact with water, ethanol, or propellants for aerosol formulations
Excerpt: Tables 1 and 2 show impurities present in Artemether API, and artemether in three solvent systems: 20% ethanol+80% propellant; 50% ethanol+50% propellant; 100% ethanol; and a medium chain triglyceride, in this case, the triglyceride sold under the registered trade mark Miglyol® 810. Miglyol® is a medium chain triglyceride containing saturated C8 and C10 fatty acids, typically between 65-80% of caprylic acid (C8:0) and 20-35% of capric acid (C10:0). The propellant used in these test was 1,1,1,2 tetrafluoroethane, sold under the registered trade mark Zephex® 134a. Similar results were obtained for the propellants butane, Zephex® 227 (1,1,1,2,3,3,3 heptafluoropropane) and for a mixture of butane and propane. […] In all other cases, the impurities are at levels that exceed those permitted under the ICH Harmonised Tripartite Guidelines for Impurities in New Drug Products without specific identification or further toxicological examination.

[2] = humans, cited from earlier work
[3] = animals, cited from earlier work

SMILES: CO[C@H]1O[C@@H]2O[C@@]3(C)CC[C@H]4[C@H](C)CC[C@@H]([C@H]1C)[C@@]24OO3 [artemether]
- Stability of artemether (in words) [1]: not stable
- Bioavailability ([2]; intramuscular route): 25%
- Bioavailability ([2]; intrarectal route): 35%
- Bioavailability ([3]; intramuscular injection): 54%
- Bioavailability ([3]; oral administration): 19-35%
